Reference: ChEMBL document CHEMBL4476872, “Inhibitors of cellular metabolic processes” (2018)

Target: S-adenosylmethionine synthase isoform type-2 (Homo sapiens, UniProt P31153)
Assay: Inhibition of recombinant His6-tagged MAT2A (unknown origin) expressed in SF9 insect cells using L-Met as substrate preincubated for 60 mins followed by substrate and ATP addition and measured after 60 mins by spectrophotometric analysis

Chain of S-adenosylmethionine synthase isoform type-2 (P31153 whole entry, canonical isoform): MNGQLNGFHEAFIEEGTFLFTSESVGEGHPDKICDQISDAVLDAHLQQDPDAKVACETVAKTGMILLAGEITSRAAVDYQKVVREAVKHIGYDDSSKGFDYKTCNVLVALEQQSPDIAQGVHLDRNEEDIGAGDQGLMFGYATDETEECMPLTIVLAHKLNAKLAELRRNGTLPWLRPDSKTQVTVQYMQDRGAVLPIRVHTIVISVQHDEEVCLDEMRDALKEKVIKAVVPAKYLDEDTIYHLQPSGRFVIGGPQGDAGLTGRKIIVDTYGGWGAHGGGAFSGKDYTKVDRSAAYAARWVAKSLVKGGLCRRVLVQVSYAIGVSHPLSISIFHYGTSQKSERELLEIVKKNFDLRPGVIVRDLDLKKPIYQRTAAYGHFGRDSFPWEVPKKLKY

Row | IC50 [nM] | SMILES
1 | 100 to 1000 | Cc1[nH]c2c(N3CCCCC3)c(-c3ccccc3)nn2c(=O)c1-c1ccccc1
2 | < 100 | COC(=O)Cc1nc2ccc(-c3c(C)[nH]c4c(-c5ccccc5)c(-c5ccccc5)nn4c3=O)cc2s1
3 | 100 to 1000 | Cc1[nH]c2c(-c3ccccc3)c(-c3ccccc3)nn2c(=O)c1-c1ccc(OCC(=O)N(C)C)cc1
4 | 100 to 1000 | COc1ccc(-c2c(CC#N)[nH]c3c(-c4ccccc4)c(-c4ccccc4)nn3c2=O)cc1
